Read-outs that look alike come from different tables or passages of the source.
What was measured:
Format in all cases: in vivo
Abutilon theophrasti [1] = assay: Greenhouse pre-emergence (PRE) herbicidal test on ABUTH; conditions: Abutilon theophrasti, pre-emergence
Method in brief: (§1)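 Visual 0–100 rating at 20 days after treatment; 0 = normal growth, 100 = no emergence or complete kill of shoots. Pre-emergent application to seeded pots of loamy sand (~3.0% humus), species-dependent temperature 10-25° C or 20-35° C.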

Amaranthus retroflexus [2] = assay: Greenhouse pre-emergence (PRE) herbicidal test on AMARE; conditions: Amaranthus retroflexus, pre-emergence
Description: The culture containers used were plastic pots containing loamy sand with approximately 3.0% of humus as substrate. The seeds of the test plants were sown separately for each species.
The containers were irrigated gently to promote germination and growth and subsequently covered with transparent plastic hoods until the plants had rooted.
Depending on the species, the plants were kept at 10-25° C. and 20-35° C., respectively.
The test period extended over 2 to 4 weeks. During this time, the plants were tended and their response to the individual treatments was evaluated.
Evaluation was carried out using a scale from 0 to 100. 100 means no emergence of the plants, or complete destruction of at least the above-ground parts, and 0 means no damage or normal course of growth. A good herbicidal activity is given at values of at least 70, and very good herbicidal activity is given at values of at least 85.
As indicated application was either post emergent (POST) at the respective growth stage (GS) of the weed (BBCH code), or pre-emergent (PRE). […]

Ambrosia artemisiifolia = assay: Greenhouse pre-emergence (PRE) herbicidal test on AMBEL; conditions: Ambrosia artemisiifolia, pre-emergence
Commelina benghalensis = assay: Greenhouse pre-emergence (PRE) herbicidal test on COMBE; conditions: Commelina benghalensis, pre-emergence
Method in brief: as §1

Euphorbia heterophylla [3] = assay: Greenhouse pre-emergence (PRE) herbicidal test on EPHHL; conditions: Euphorbia heterophylla, pre-emergence
Method in brief: as §1

Lolium multiflorum = assay: Greenhouse pre-emergence (PRE) herbicidal test on LOLMU; conditions: Lolium multiflorum, pre-emergence
Method in brief: as §1

Setaria viridis = assay: Greenhouse pre-emergence (PRE) herbicidal test on SETVI; conditions: Setaria viridis, pre-emergence, 480 h, PRE, 20 DAT
Method in brief: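 Damage was rated visually on a 0 to 100 scale at 20 days after treatment, where 0 meant normal growth and 100 meant no emergence or complete kill of above-ground parts. Compounds were applied in water to freshly sown loamy-sand pots.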

Digitaria sanguinalis = assay: Greenhouse post-emergence (POST) herbicidal test on DIGSA; conditions: Digitaria sanguinalis, post-emergence
Method in brief: (§2)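 Plants grown in pots of loamy sand (~3.0% humus) to 3–15 cm height, then sprayed with compounds suspended or emulsified in water (formulated as 5% by weight emulsion concentrate). Kept at 10-25° C or 20-35° C by species; injury scored 0–100 (100 = complete destruction) at 20 DAT.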

Echinochloa crus-galli [4] = assay: Greenhouse post-emergence (POST) herbicidal test on ECHCG; conditions: Echinochloa crus-galli, post-emergence
Method in brief: as §2

Euphorbia heterophylla [5] = assay: Greenhouse post-emergence (POST) herbicidal test on EPHHL; conditions: Euphorbia heterophylla, post-emergence
Method in brief: as §2

Geranium pusillum = assay: Greenhouse post-emergence (POST) herbicidal test on GERPU; conditions: Geranium pusillum, post-emergence
Method in brief: as §2

Alopecurus myosuroides = assay: Greenhouse pre-emergence (PRE) herbicidal test on ALOMY; conditions: Alopecurus myosuroides, pre-emergence
Method in brief: as §1

Echinochloa crus-galli [6] = assay: Greenhouse pre-emergence (PRE) herbicidal test on ECHCG; conditions: Echinochloa crus-galli, pre-emergence
Abutilon theophrasti [7] = assay: Greenhouse post-emergence (POST) herbicidal test on ABUTH; conditions: Abutilon theophrasti, post-emergence
Method in brief: as §2

Amaranthus retroflexus [8] = assay: Greenhouse post-emergence (POST) herbicidal test on AMARE; conditions: Amaranthus retroflexus, post-emergence
Method in brief: as §2

[9] = 480 h, PRE, 0.25 gai/ha, 20 DAT
[10] = 480 h, POST, 0.25 gai/ha, 20 DAT

CCOC(=O)COc1ccccc1Oc1nc(-n2c(=O)cc(C(F)(F)F)n(C)c2=O)c(F)cc1Cl [2-[2-[[3-chloro-6-[3,6-dihydro-3-methyl-2,6-dioxo-4-(trifluoromethyl)-1(2H)-pyrimidinyl]-5-fluoro-2-pyridinyl]oxy]phenoxy]acetic acid ethyl ester]
50%: inhibition at […] (Euphorbia heterophylla [5]; 480 h, EPHHL POST, 20 DAT, use rate 0.25 gai/ha) | pest or weed control at […] (Euphorbia heterophylla [5]; [10])
80%: inhibition at 0.5 g/ha (Digitaria sanguinalis; 480 h, DIGSA POST, 20 DAT, use rate 0.5 gai/ha) | inhibition at 0.5 g/ha (Echinochloa crus-galli [4]; 480 h, ECHCG POST, 20 DAT, use rate 0.5 gai/ha, read-out: % activity)
0%: pest or weed control at […] (Abutilon theophrasti [1]; [9]) | pest or weed control at 0.5 g/ha (Amaranthus retroflexus [2]; 480 h, PRE, 0.5 gai/ha, 20 DAT) | inhibition at […] (Ambrosia artemisiifolia; 480 h, AMBEL PRE, 20 DAT, use rate 0.25 gai/ha, read-out: % activity) | inhibition at 0.5 g/ha (Ambrosia artemisiifolia; 480 h, AMBEL PRE, 20 DAT, use rate 0.5 gai/ha, read-out: % activity) | pest or weed control at […] (Ambrosia artemisiifolia; [9]) | inhibition at […] (Commelina benghalensis; 480 h, COMBE PRE, 20 DAT, use rate 0.25 gai/ha, read-out: % activity) | inhibition at 0.5 g/ha (Commelina benghalensis; 480 h, COMBE PRE, 20 DAT, use rate 0.5 gai/ha) | pest or weed control at 0.5 g/ha (Commelina benghalensis; 480 h, PRE, 0.5 gai/ha, 20 DAT) | inhibition at 0.5 g/ha (Euphorbia heterophylla [3]; 480 h, EPHHL PRE, 20 DAT, use rate 0.5 gai/ha, read-out: % activity) | pest or weed control at 0.5 g/ha (Euphorbia heterophylla [3]; 480 h, PRE, 0.5 gai/ha, 20 DAT) | inhibition at […] (Lolium multiflorum; 480 h, LOLMU PRE, 20 DAT, use rate 0.25 gai/ha, read-out: % activity) | pest or weed control at […] (Lolium multiflorum; [9]) | pest or weed control at 0.5 g/ha (Lolium multiflorum; 480 h, PRE, 0.5 gai/ha, 20 DAT) | pest or weed control at […] (Setaria viridis; 0.25 gai/ha) | pest or weed control at 0.5 g/ha (Setaria viridis; 0.5 gai/ha)
10%: pest or weed control at 0.5 g/ha (Abutilon theophrasti [1]; 480 h, PRE, 0.5 gai/ha, 20 DAT)
85%: inhibition at 0.5 g/ha (Geranium pusillum; 480 h, GERPU POST, 20 DAT, use rate 0.5 gai/ha) | pest or weed control at 0.5 g/ha (Geranium pusillum; 480 h, POST, 0.5 gai/ha, 20 DAT)
5%: inhibition at […] (Euphorbia heterophylla [3]; 480 h, EPHHL PRE, 20 DAT, use rate 0.25 gai/ha, read-out: % activity) | pest or weed control at […] (Euphorbia heterophylla [3]; [9])
15%: pest or weed control at […] (Digitaria sanguinalis; [10]) | inhibition at […] (Echinochloa crus-galli [4]; 480 h, ECHCG POST, 20 DAT, use rate 0.25 gai/ha)

CS(=O)(=O)NC(=O)c1cc(Oc2ccc(C(F)(F)F)cc2Cl)ccc1[N+](=O)[O-] [Fomesafen, fomesafen]
25%: inhibition at 10 g/ha (Amaranthus retroflexus [2]; 480 h, PRE, AMARE, use rate 10 gai/ha, 20 DAT, read-out: solo application % activity) | inhibition at 10 g/ha (Amaranthus retroflexus [8]; 480 h, POST, AMARE, use rate 10 gai/ha, 20 DAT, read-out: solo application % activity) | inhibition at 10 g/ha (Digitaria sanguinalis; 480 h, POST, DIGSA, use rate 10 gai/ha, 20 DAT, read-out: solo application % activity)
10%: inhibition at […] (Commelina benghalensis; 480 h, PRE, COMBE, use rate 2.5 gai/ha, 20 DAT, read-out: solo application % activity) | inhibition at 10 g/ha (Commelina benghalensis; 480 h, PRE, COMBE, use rate 10 gai/ha, 20 DAT, read-out: solo application % activity)
0%: inhibition at […] (Abutilon theophrasti [1]; 480 h, PRE, ABUTH, use rate 2.5 gai/ha, 20 DAT, read-out: solo application % activity) | inhibition at 10 g/ha (Abutilon theophrasti [1]; 480 h, PRE, ABUTH, use rate 10 gai/ha, 20 DAT, read-out: solo application % activity) | inhibition at […] (Alopecurus myosuroides; 480 h, PRE, ALOMY, use rate 2.5 gai/ha, 20 DAT, read-out: solo application % activity) | inhibition at 10 g/ha (Alopecurus myosuroides; 480 h, PRE, ALOMY, use rate 10 gai/ha, 20 DAT, read-out: solo application % activity) | inhibition at […] (Amaranthus retroflexus [2]; 480 h, PRE, AMARE, use rate 2.5 gai/ha, 20 DAT, read-out: solo application % activity) | inhibition at […] (Ambrosia artemisiifolia; 480 h, PRE, AMBEL, use rate 2.5 gai/ha, 20 DAT, read-out: solo application % activity) | inhibition at 10 g/ha (Ambrosia artemisiifolia; 480 h, PRE, AMBEL, use rate 10 gai/ha, 20 DAT, read-out: solo application % activity) | inhibition at […] (Echinochloa crus-galli [6]; 480 h, PRE, ECHCG, use rate 2.5 gai/ha, 20 DAT, read-out: solo application % activity) | inhibition at 10 g/ha (Echinochloa crus-galli [6]; 480 h, PRE, ECHCG, use rate 10 gai/ha, 20 DAT, read-out: solo application % activity) | inhibition at […] (Euphorbia heterophylla [3]; 480 h, PRE, EPHHL, use rate 2.5 gai/ha, 20 DAT, read-out: solo application % activity) | inhibition at 10 g/ha (Euphorbia heterophylla [3]; 480 h, PRE, EPHHL, use rate 10 gai/ha, 20 DAT, read-out: solo application % activity) | inhibition at […] (Lolium multiflorum; 480 h, PRE, LOLMU, use rate 2.5 gai/ha, 20 DAT, read-out: solo application % activity) | inhibition at 10 g/ha (Lolium multiflorum; 480 h, PRE, LOLMU, use rate 10 gai/ha, 20 DAT, read-out: solo application % activity)
20%: inhibition at […] (Abutilon theophrasti [7]; 480 h, POST, ABUTH, use rate 2.5 gai/ha, 20 DAT, read-out: solo application % activity) | inhibition at 10 g/ha (Abutilon theophrasti [7]; 480 h, POST, ABUTH, use rate 10 gai/ha, 20 DAT, read-out: solo application % activity)

CCC(=O)Nc1ccc(Cl)c(Cl)c1 [Propanil, propanil]
0%: pest or weed control at 500 g/ha (Abutilon theophrasti [1]; 432 h, read-out: % activity) | pest or weed control at 250 g/ha (Alopecurus myosuroides; 432 h, read-out: % activity) | pest or weed control at 500 g/ha (Alopecurus myosuroides; 432 h, read-out: % activity) | pest or weed control at 500 g/ha (Amaranthus retroflexus [2]; 432 h, read-out: % activity) | pest or weed control at 250 g/ha (Ambrosia artemisiifolia; 432 h, read-out: % activity) | pest or weed control at 500 g/ha (Ambrosia artemisiifolia; 432 h, read-out: % activity) | pest or weed control at 250 g/ha (Commelina benghalensis; 432 h, read-out: % activity) | pest or weed control at 250 g/ha (Echinochloa crus-galli [6]; 432 h, read-out: % activity) | pest or weed control at 500 g/ha (Echinochloa crus-galli [6]; 432 h, read-out: % activity) | pest or weed control at 250 g/ha (Euphorbia heterophylla [3]; 432 h, read-out: % activity) | inhibition at 250 g/ha (Lolium multiflorum; 432 h, PRE, LOLMU, 250 gai/ha, 18 DAT, read-out: % activity solo application) | inhibition at 500 g/ha (Lolium multiflorum; 432 h, PRE, LOLMU, 500 gai/ha, 18 DAT, read-out: % activity solo application) | pest or weed control at 250 g/ha (Lolium multiflorum; 432 h, read-out: % activity) | pest or weed control at 500 g/ha (Lolium multiflorum; 432 h, read-out: % activity) | pest or weed control at 250 g/ha (Abutilon theophrasti [7]; 432 h, read-out: % activity) | pest or weed control at 250 g/ha (Amaranthus retroflexus [8]; 432 h, read-out: % activity) | pest or weed control at 500 g/ha (Amaranthus retroflexus [8]; 432 h, read-out: % activity) | inhibition at 250 g/ha (Echinochloa crus-galli [4]; 432 h, POST, ECHCG, 250 gai/ha, 18 DAT, read-out: % activity solo application) | inhibition at 500 g/ha (Echinochloa crus-galli [4]; 432 h, POST, ECHCG, 500 gai/ha, 18 DAT, read-out: % activity solo application) | pest or weed control at 250 g/ha (Echinochloa crus-galli [4]; 432 h, read-out: % activity) | pest or weed control at 500 g/ha (Echinochloa crus-galli [4]; 432 h, read-out: % activity) | pest or weed control at 250 g/ha (Euphorbia heterophylla [5]; 432 h, read-out: % activity)
5%: pest or weed control at 500 g/ha (Abutilon theophrasti [7]; 432 h, read-out: % activity)
10%: inhibition at 250 g/ha (Digitaria sanguinalis; 432 h, POST, DIGSA, 250 gai/ha, 18 DAT, read-out: % activity solo application) | pest or weed control at 250 g/ha (Digitaria sanguinalis; 432 h, read-out: % activity) | pest or weed control at 500 g/ha (Digitaria sanguinalis; 432 h, read-out: % activity)
40%: pest or weed control at 500 g/ha (Geranium pusillum; 432 h, read-out: % activity)

— US20260007133A1, “HERBICIDAL COMPOSITION COMPRISING AZINE COMPOUNDS” (BASF SE, priority 2022, published 2026)
